# Reference: US20040048834A1, “Antitumoral compounds” (priority 2000, published 2004)
# Structures can show the parent of a compound that is named as a salt. Where two headings read alike, the source gives them in different places.
# Assays:
# Assay type in all cases: cell-based
# A549 = test: Cytotoxicity of spisulosine analogs, A549 (after Berjeron et al)
# HT29 = test: Cytotoxicity of spisulosine analogs, HT29 (after Berjeron et al)
# MEL28 = test: Cytotoxicity of spisulosine analogs, MEL28 (after Berjeron et al)
# P388 = test: Cytotoxicity of spisulosine analogs, P388 (after Berjeron et al)
# DU145 = test: Cytotoxicity of spisulosine analogs, DU145 (after Berjeron et al)
# [1] = A549, methodology after Berjeron et al, NA=not active, hydrochloride, read-out: Cytotoxicity IC50 A549
# [2] = HT29, methodology after Berjeron et al, NA=not active, hydrochloride, read-out: Cytotoxicity IC50 HT29
# [3] = Homo sapiens, SK-MEL-28, MEL28, methodology after Berjeron et al, NA=not active, read-out: Cytotoxicity IC50 MEL28
# [4] = A549, methodology after Berjeron et al, NA=not active, read-out: Cytotoxicity IC50 A549
# [5] = HT29, methodology after Berjeron et al, NA=not active, read-out: Cytotoxicity IC50 HT29
# [6] = Mus musculus, P388, P388, methodology after Berjeron et al, NA=not active, read-out: Cytotoxicity IC50 P388
# [7] = Homo sapiens, DU-145, DU145, methodology after Berjeron et al, NA=not active, read-out: Cytotoxicity IC50 DU145
# [8] = MEL28, methodology after Berjeron et al, NA=not active, read-out: Cytotoxicity IC50 MEL28
# [9] = P388, methodology after Berjeron et al, NA=not active, read-out: Cytotoxicity IC50 P388
# [10] = DU145, methodology after Berjeron et al, NA=not active, read-out: Cytotoxicity IC50 DU145
# [11] = Homo sapiens, A549, A549, methodology after Berjeron et al, NA=not active, read-out: Cytotoxicity IC50 A549
# [12] = Homo sapiens, HT-29, HT29, methodology after Berjeron et al, NA=not active, read-out: Cytotoxicity IC50 HT29
smiles,measurement,setting,value
"CCCCCCCCCCCCC[C@@H](O)[C@H](C)N [drawing 42, (2S,3R)-2-Amin-3-hexadecanol hydrochloride]",IC50,A549; [1],0.0034 µM
same,IC50,HT29; [2],0.0034 µM
"CCCCCCCCCCCCC[C@@H](O)[C@H](C)N [drawing 41, (2S,3R)-2-Amino-3-hexadecanol]",IC50,MEL28; [3],0.368 µM
same,IC50,A549; [4],0.194 µM
same,IC50,HT29; [5],0.388 µM
same,IC50,P388; [6],0.388 µM
same,IC50,DU145; [7],0.194 µM
CCCCCCCCCCCCCCC[C@H](N)[C@H](C)N,IC50,A549; [4],0.28 µM
same,IC50,HT29; [5],0.28 µM
CCCCCCCCCCCCCCC[C@@H](O)[C@@H](N)CF [drawing 111],IC50,MEL28; [8],0.329 µM
same,IC50,A549; [4],0.0329 µM
same,IC50,HT29; [5],0.0329 µM
same,IC50,P388; [9],0.0329 µM
same,IC50,DU145; [10],0.329 µM
CCCCCCCCCCCCCCCC(=NO)C(C)N (stereo not drawn),IC50,MEL28; [8],0.335 µM
same,IC50,A549; [4],0.335 µM
same,IC50,HT29; [5],0.335 µM
same,IC50,P388; [9],0.335 µM
same,IC50,DU145; [10],0.335 µM
CCCCCCCCCCCCCCCC(O)C(N)CC (stereo not drawn) [drawing 79],IC50,MEL28; [8],0.334 µM
same,IC50,A549; [4],0.334 µM
same,IC50,HT29; [5],0.334 µM
same,IC50,P388; [9],0.334 µM
same,IC50,DU145; [10],0.334 µM
CCCCCCCCCCCCCCCC(=O)[C@@H](C)N,IC50,MEL28; [8],0.313 µM
same,IC50,A549; [4],0.156 µM
same,IC50,HT29; [5],0.156 µM
same,IC50,P388; [9],0.156 µM
same,IC50,DU145; [10],0.156 µM
CCCCCCCCCCCCCCCCC(=O)[C@H](C)N [drawing 104],IC50,MEL28; [8],0.299 µM
same,IC50,A549; [4],0.15 µM
same,IC50,HT29; [5],0.15 µM
same,IC50,P388; [9],0.15 µM
same,IC50,DU145; [10],0.15 µM
"CCCCCCCCCCCCCCC[C@@H](O)[C@@H](N)CCCN [drawing 72, (4S,5R)-1,4-Diamino-5-eicosanol dihydrochloride]",IC50,"A549; A549, methodology after Berjeron et al, NA=not active, dihydrochloride, read-out: Cytotoxicity IC50 A549",1.24 µM
same,IC50,"HT29; HT29, methodology after Berjeron et al, NA=not active, dihydrochloride, read-out: Cytotoxicity IC50 HT29",1.24 µM
"CCCCCCCCCCCCCCC[C@@H](OP(=O)(OC)OC)[C@H](C)N [(2S,3R)-2-Amino-O-(dimethylphosphate)-3-octadecanol]",IC50,"MEL28; Homo sapiens, SK-MEL-28, read-out: Cytotoxicity IC50 MEL28",1.27 µM
same,IC50,"A549; Homo sapiens, A549, read-out: Cytotoxicity IC50 A549",1.27 µM
same,IC50,"HT29; Homo sapiens, HT-29, read-out: Cytotoxicity IC50 HT29",1.27 µM
same,IC50,"P388; Mus musculus, P388, read-out: Cytotoxicity IC50 P388",1.27 µM
same,IC50,"DU145; Homo sapiens, DU-145, read-out: Cytotoxicity IC50 DU145",1.27 µM
"CCCCCCCCCCCCCCC[C@@H](OC)[C@H](C)N [(2S,3R)-2-Amino-3-(methoxy)-octadecane]",IC50,A549; [11],1.67 µM
same,IC50,HT29; [12],1.67 µM
"CCCCCCCCCCCCCC[C@@H](O)[C@@H](N)CC [drawing 56, (3S,4R)-3-Amino-4-octadecanol]",IC50,A549; [4],0.0035 µM
same,IC50,HT29; [5],0.0035 µM
"CCCCCCCCCCCCCCC[C@H](O)[C@@H](C)N [(2R,3S)-2-Amino-3-octadecanol]",IC50,MEL28; [3],0.35 µM
same,IC50,A549; [11],0.35 µM
same,IC50,HT29; [12],0.35 µM
same,IC50,P388; [6],0.35 µM
same,IC50,DU145; [7],0.35 µM
CCCCCCCCCCCCCCCC(=O)[C@@H](N)CC [drawing 106],IC50,MEL28; [8],0.299 µM
same,IC50,A549; [4],0.0299 µM
same,IC50,HT29; [5],0.0299 µM
same,IC50,P388; [9],0.0299 µM
same,IC50,DU145; [10],0.0299 µM
"CCCCCCCCCCCCCCC[C@@H](O)[C@@H](N)CC [drawing 58, (3S,4R)-3-Amino-4-nonadecanol]",IC50,MEL28; [3],0.334 µM
same,IC50,A549; [4],0.0334 µM
same,IC50,HT29; [5],0.0334 µM
same,IC50,P388; [6],0.0334 µM
same,IC50,DU145; [7],0.0334 µM
"CCCCCCCCCCCCCCCC[C@@H](O)[C@H](C)N [drawing 37, (2S,3R)-2-Amino-3-nonadecanol]",IC50,MEL28; [3],0.0334 µM
same,IC50,A549; [4],0.0334 µM
same,IC50,HT29; [5],0.0334 µM
same,IC50,P388; [6],0.0334 µM
same,IC50,DU145; [7],0.0334 µM
CCCCCCCCCCCCCCC[C@@H](N)[C@H](C)N,IC50,A549; [4],1.4 µM
same,IC50,HT29; [5],1.4 µM
"CCCCCCCCCCCCCCCCC[C@@H](O)[C@@H](N)CC [drawing 63, (3S,4R)-3-Amino-4-heneicosanol hydrochloride]",IC50,A549; [1],0.0275 µM
same,IC50,HT29; [2],0.0275 µM
"CCCCCCCCCCCCCCCCCCC[C@@H](O)[C@H](C)N [(2S,3R)-2-Amino-3-docosanol]",IC50,HT29; [12],1.46 µM
same,IC50,P388; [6],0.293 µM
same,IC50,DU145; [7],1.46 µM
"CCCCCCCCCCCCCCC[C@@H](O)[C@@H](N)CCC [drawing 65, (4S,5R)-4-Amino-5-eicosanol hydrochloride]",IC50,A549; [1],0.0286 µM
same,IC50,HT29; [2],0.0286 µM
"CCCCCCCCCCCCCCCCCCCC[C@@H](O)[C@H](C)N [(2S,3R)-2-Amino-3-tricosanol]",IC50,HT29; [12],2.81 µM
same,IC50,P388; [6],1.41 µM
same,IC50,DU145; [7],2.81 µM
"CCCCCCCCCCCCCC[C@@H](O)[C@H](C)N [drawing 45, (2S,3R)-2-Amino-3-heptadecanol hydrochloride]",IC50,A549; [1],0.0325 µM
same,IC50,HT29; [2],0.0325 µM
"CCCCCCCCCCCCCCC[C@@H](O)[C@@H](N)Cc1ccc(O)cc1 [drawing 70, (2S,3R)-2-Amino-1-(4′-hydroxyphenyl)-3-octadecanol hydrochloride]",IC50,A549; [1],0.242 µM
same,IC50,HT29; [2],0.242 µM
